# Test results as given in US20080207632A1, “PROTEIN KINASE INHIBITORS” (SUPERGEN, INC., priority 2006, published 2008).
# Target: T1, aurora-2 kinase (Homo sapiens, UniProt O14965)
# T1 construct: purchased Upstate, Lake Placid, N.Y; host or cells: sf9 cells
# T1 sequence (O14965 1-403): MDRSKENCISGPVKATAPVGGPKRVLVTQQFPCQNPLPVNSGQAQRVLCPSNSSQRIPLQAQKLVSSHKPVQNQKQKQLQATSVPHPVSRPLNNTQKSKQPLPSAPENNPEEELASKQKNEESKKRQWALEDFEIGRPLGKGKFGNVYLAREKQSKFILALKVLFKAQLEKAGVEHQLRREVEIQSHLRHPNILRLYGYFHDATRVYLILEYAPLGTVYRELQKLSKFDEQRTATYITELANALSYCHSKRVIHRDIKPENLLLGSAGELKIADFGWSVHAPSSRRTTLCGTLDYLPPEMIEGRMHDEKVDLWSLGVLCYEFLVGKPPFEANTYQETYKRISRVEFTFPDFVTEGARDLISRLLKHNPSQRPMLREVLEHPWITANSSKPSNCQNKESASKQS
# Assay: aurora-2 kinase inhibition assay (Kinase-Glo, ATP remaining)
# Format: biochemical
# Conditions: Example 17; 3 μM ATP; read-out: IC50 (drug concentration at which 50% of aurora-2 kinase activity was inhibited)
# Method: (§1) In this assay kinase activity was determined by quantifying the amount of ATP remaining in solution following a kinase reaction by measuring the light units (LU) produced by luciferase using a luminometer. Percent inhibition was determined for individual compounds by comparing luminometer readings of drug-treated reactions to controls containing no drug (DMSO control) and no Aurora-2 enzyme (ATP control) in the following equation: […]
# (§2) In a 50 μl reaction, recombinant aurora-2 kinase produced in sf9 cells (Upstate, Lake Placid, N.Y.) was incubated at 30° C. for two hours with 62.5 μM Kemptide (Calbiochem, San Diego, Calif.), 3 μM ATP (Invitrogen, Carlsbad, Calif.) and kinase reaction buffer (40 mM Tris-HCl, 10 mM MgCl2 and 0.1 μg/μl bovine serum albumin (BSA)). This reaction was carried out in the presence of drug substances, which had been previously diluted to desired concentrations in DMSO. After incubation, 50 μl of Kinase-Glo® (Promega, Inc., Madison, Wis.) solution was added to each reaction mixture and allowed to equilibrate for 10 minutes at room temperature. Kinase-Glo solution contains luciferase enzyme and luciferin, which react with ATP to produce light. Kinase activity is determined by quantifying the amount of ATP remaining in solution following the kinase reaction by measuring the light units (LU) produced by luciferase using a luminometer (Thermo-Electron, Vantaa, Finland).
# as §1, with “Briefly,” for “In this assay”
# as §2, with “μg/Il” for “μg/μl”
# as §1, with “Illustrative compounds 2-3, 2-5, 2-7, 2-4 and 2-9 were evaluated in an aurora-2 kinase inhibition assay. In” for “In”
row,Compound,IC50 [nM]
1,"CC(=O)NS(=O)(=O)c1ccc(NC(=S)N2CCN(c3ncnc4[nH]c5cc(C(F)(F)F)c(Cl)cc5c34)CC2)cc1 [Compound 1-1, 4-(6-Chloro-7-trifluoromethyl-9H-pyrimido[4,5-b]indol-4-yl)-piperazine-1-carbothioic acid (4-acetylsulfamoyl-phenyl)-amide]",49
2,"COc1cc2[nH]c3ncnc(N4CCN(C(=S)Nc5ccc(S(=O)(=O)NC(C)=O)cc5)CC4)c3c2cc1OC [Compound 1-2, 4-(6,7-Dimethoxy-9H-pyrimido[4,5-b]indol-4-yl)-piperazine-1-carbothioic acid (4-acetylsulfamoyl-phenyl)-amide]",< 5

# Same assay, conditions: Example 20; unit from the table's spanning head; read-out: IC50 A2K
row,Compound,IC50 [nM]
1,"COc1cc2[nH]c3ncnc(N4CCN(C(=S)Nc5ccc(S(=O)(=O)NC(C)=O)cc5)CC4)c3c2cc1OC [Compound 1-2, 4-(6,7-Dimethoxy-9H-pyrimido[4,5-b]indol-4-yl)-piperazine-1-carbothioic acid (4-acetylsulfamoyl-phenyl)-amide]",≤ 5
2,"CC(=O)NS(=O)(=O)c1ccc(NC(=S)N2CCN(c3ncnc4[nH]c5ccc(Cl)cc5c34)CC2)cc1 [Compound 1-3, 4-(6-chloro-9H-pyrimido[4,5-b]indol-4-yl)-piperazine-1-carbothioic acid (4-acetylsulfamoyl-phenyl)-amide]",74
3,CC(=O)NS(=O)(=O)c1ccc(NC(=S)N2CCN(c3ncnc4[nH]c5cc(F)ccc5c34)CC2)cc1 [Compound 1-4],23
4,COc1cc2c(cc1O)[nH]c1ncnc(N3CCN(C(=S)Nc4ccc(S(=O)(=O)NC(C)=O)cc4)CC3)c12 [Compound 1-8],18

# Next, values leading:
row,IC50 [nM],Compound
1,317,COc1cc2[nH]c3ncnc(N4CCN(C(=S)Nc5ccc(S(=O)(=O)N6CCOCC6)cc5)CC4)c3c2cc1OC [Compound 1-26]
2,2090,COc1cc2[nH]c3ncnc(N4CCN(C(=S)Nc5ccc(NC(=O)C6CC6)cc5)CC4)c3c2cc1OC [Compound 1-34]
3,4970,COc1cc2[nH]c3ncnc(N4CCN(C(=S)Nc5ccc(NC(C)=O)cc5)CC4)c3c2cc1OC [Compound 1-42]
4,586,COc1cc2[nH]c3ncnc(N4CCN(C(=S)Nc5ccc(S(N)(=O)=O)cc5)CC4)c3c2cc1OC [Compound 1-107]
5,743,COc1cc2[nH]c3ncnc(N4CCN(C(=S)Nc5ccc(S(C)(=O)=O)cc5)CC4)c3c2cc1OC [Compound 1-115]

# Same assay, conditions: Example 54, Table 8; 3 μM ATP; read-out: Aurora-2 Inhibition, IC50
row,Compound,IC50 [nM]
1,"COc1cc2[nH]c3ncnc(N4CCN(C(=S)Nc5ccc(S(=O)(=O)Nc6ccc(F)cc6)cc5)CC4)c3c2cc1OC [Compound 2-3, 4-(6,7-dimethoxy-9H-pyrimido[4,5-b]indol-4-yl)-N-(4-(N-(4-fluorophenyl)sulfamoyl)phenyl)piperazine-1-carbothioamide]",110
2,"COc1ccc2c(c1)[nH]c1ncnc(N3CCN(C(=S)Nc4ccc(S(=O)(=O)Nc5ccc(F)cc5)cc4)CC3)c12 [Compound 2-5, 4-(7-methoxy-9H-pyrimido[4,5-b]indol-4-yl)-N-(4-(N-(4-fluorophenyl)sulfamoyl)phenyl)piperazine-1-carbothioamide]",569
3,"Cc1ccc(NS(=O)(=O)c2ccc(NC(=S)N3CCN(c4ncnc5[nH]c6cc(Cl)c(N7CCOCC7)cc6c45)CC3)cc2)cc1 [Compound 2-9, 4-(7-chloro-6-morpholino-9H-pyrimido[4,5-b]indol-4-yl)-N-(4-(N-tolylsulfamoyl)phenyl)piperazine-1-carbothioamide]",837
